# Source: publication PMC12282105 (RSC Advances, 2025)
# Target: SARS-CoV-2 main protease (M^pro or 3CL^pro) (Severe acute respiratory syndrome coronavirus 2, UniProt P0DTD1)
# Assay: Fluorogenic substrate assay of SARS-CoV-2 main protease
# Type: biochemical
# Conditions: compound 9 relative to compound 8
smiles,measurement,value
"O=c1cc(-c2ccc(O)cc2)oc2cc(O[C@@H]3O[C@H](CO)[C@@H](O)[C@H](O)[C@H]3O)cc(O)c12 [Compound 9, apigenin-7-O-β-D-glucopyranoside]",improvement in protease inhibitory activity,15 fold
